The data set in a line: pKa values of the azo dyes. It is filed as physicochemical. To be noted: azo dye. The protocol: Thus, in the hair dye composition of the present invention having pH (25° C.) of 7.5 to 12, almost 80% or more of these azo dyes are present in an anionic state where a proton(s) is dissociated.
The molecule `CSc1nsc(/N=N/c2ccc(O)c(Cl)c2)n1` [Example A-1] had a pKa of 6.
With `NS(=O)(=O)c1ccc2nsc(/N=N/c3ccc(O)c(Cl)c3)c2c1` [Example A-2], the pKa came to 6.
With `Cn1nccc1/N=N/c1ccc(O)c(Cl)c1` [Example A-3], the pKa is 7.5.

(Values after patent publication US10478389B2, “Hair-dye composition” (KAO CORPORATION, priority 2014, dated 2019).)
